How the values were obtained:
[1] = test system: chronic renal calculus disease; conditions: 65 mg taken three times a day; cited from earlier work
[2] = test system: estrogen-deficient (OVX) mice, post-menopausal type bone loss; assay: Ovariectomy (OVX) estrogen-depletion bone loss prevention in mice; assay type: in vivo
Description: Young adult mice were subjected to surgical ovariectomy (OVX) to deplete estrogen. This is widely accepted model for inducing post-menopausal type bone loss. It is the standard used by pharmaceutical companies in preclinical trials and is required by the FDA to confirm efficacy of an agent in preventing bone loss. Seven sham control mice received a surgical incision and wound closure but ovaries were left intact. Mice were return to their cages after surgery. Six “MB” mice received methylene blue in the cage water (0.2% in cage water supply starting 24 hours before surgery) which they were allowed to consume ad libitum for the duration of the study (three months); the remainder of the mice received normal cage water. Mice were sacrificed at three months post-OVX and bones were examined using microCT. The results are depicted in FIG. 2A and FIG. 2B which show bone changes with estrogen loss (OVX) were prevented by systemic treatment with methylene blue (MB). FIG. 2B is a graph of Bone Volume over Total Volume (BV/TV) for the groups of mice.

[3] = test system: bipolar manic-depressive patients; conditions: 300 mg per day for one year; cited from earlier work
[4] = test system: aged mouse femur, age-related bone loss; assay: Age-related (Type 2) osteoporosis in aged mice, one year treatment; assay type: in vivo
Procedure: A one year old mouse is biologically similar to a 45-50 year-old human. Starting at 1 year of age, methylene blue was administered in the cage water supply (0.2% by weight) for one year to three male mice. Control mice received normal water. Animals were free to consume water and food ad libitum. Bones were examined when the mice were two years old, which is similar to a 75-80 year-old person.
FIG. 3A is a micro-Xray image of aged mouse femur from mouse with no treatment. Large holes or pores are clearly seen in the bone, as is thinning of the bone cortex. This is normal age-related osteoporosis.
FIG. 3B is a micro-Xray image of aged mouse femur from mouse after one year duration methylene blue treatment. No increases in porosity or cortex thinning are seen.

rats = conditions: injected at a dose of 1 mg per kg; cited from earlier work

## CN(C)c1ccc2nc3ccc(=[N+](C)C)cc-3sc2c1 [methylene blue]
[1]
  Management of chronic renal calculus disease: useful
[2]; 0.2% in cage water ad libitum, three months post-OVX, microCT of distal femur, OVX without treatment approx. 40% reduction in bone volume
  Bone loss, Bone Volume over Total Volume (BV/TV): almost completely prevented
[2]; mice model of estrogen removal
  Bone mechanical property: maintained
  Bone mineral density: maintained
  Cancellous bone loss after estrogen removal: prevent cancellous bone loss
  Osteocyte apoptosis: prevent osteocyte apoptosis
  Oxidative stress in bone cells: protect bone cells from oxidative stress
[3]
  Depression compared with placebo: significantly less depressed
[4]; 0.2% by weight in cage water for one year from 1 year of age, male mice, femur examined at two years old, FIG. 4
  Bone porosity compared to bones from control mice: about half
[4]; 0.2% by weight in cage water for one year, aged mouse femur, FIG. 3B
  Cortex thinning (micro-Xray image): prevented the cortex or shell of the bone from thinning
rats
  Brain oxidative metabolism and memory retention: improved

Reference: US20170354617A1, “METHOD OF TREATING OR PREVENTING OSTEOPOROSIS” (Research Foundation of the City University of New York, priority 2016, published 2017)
